Results from patent publication US20230146675A1, “PYRIMIDO[5,4-d]PYRIMIDINE DERIVATIVES AS ENT INHIBITORS FOR THE TREATMENT OF CANCERS, AND COMBINATION THEREOF WITH ADENOSINE RECEPTOR ANTAGONISTS” (ITEOS BELGIUM SA, priority 2020, published 2023).
pIC50: −log10 of the molar value.

These compounds were tested against T1, human ENT1 (Homo sapiens, UniProt Q99808) (assay: ENT1 binding assay (competition with Sahenta-DY647 on JAR cells)). Conditions: binned IC50.
T1 sequence (Q99808 1-456): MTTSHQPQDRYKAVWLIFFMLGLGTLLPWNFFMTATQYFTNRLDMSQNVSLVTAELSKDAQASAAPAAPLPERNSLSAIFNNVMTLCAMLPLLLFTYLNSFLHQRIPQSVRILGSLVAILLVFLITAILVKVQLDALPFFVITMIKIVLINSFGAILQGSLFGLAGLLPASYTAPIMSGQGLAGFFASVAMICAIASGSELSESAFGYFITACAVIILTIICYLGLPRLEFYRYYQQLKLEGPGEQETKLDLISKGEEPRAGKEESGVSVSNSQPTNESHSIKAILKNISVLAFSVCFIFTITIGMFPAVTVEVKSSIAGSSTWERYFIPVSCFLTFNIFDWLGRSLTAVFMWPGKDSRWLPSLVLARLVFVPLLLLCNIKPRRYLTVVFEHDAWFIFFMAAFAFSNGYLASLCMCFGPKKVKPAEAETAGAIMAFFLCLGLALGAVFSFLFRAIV
Set-up: JAR cells expressing ENT1 were bought from ATCC; host or cells: JAR cells
Summary of the method: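 JAR cells were incubated with test compounds and the fluorescent ligand Sahenta-DY647 in competition. Plates were washed twice by centrifugation (4 min, 400 rcf, 4 °C). Binding potency was derived from the final fluorescence.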

Compound	pIC50
COCCN(CCOC)c1nc(N2CCC(OC)CC2)c2nc(N(CCO)CCO)nc(N3CC(=O)N(C)C(=O)C3)c2n1 [Compound 307, 4-(2-(bis(2-hydroxyethyl)amino)-6-(bis(2-methoxyethyl)amino)-8-(4-methoxypiperidin-1-yl)pyrimido[5,4-d]pyrimidin-4-yl)-1-methylpiperazine-2,6-dione]	> 7.00
COCCN(CCOC)c1nc(N2CCC(OC)CC2)c2nc(N(CCO)CCO)nc(N3CC(=O)N(C)C(C)(C)C3)c2n1 [Compound 311, 4-(2-(bis(2-hydroxyethyl)amino)-6-(bis(2-methoxyethyl)amino)-8-(4-methoxypiperidin-1-yl)pyrimido[5,4-d]pyrimidin-4-yl)-1,6,6-trimethylpiperazin-2-one]	> 7.00
COCCN(CCOC)c1nc(N2CCC(OC)CC2)c2nc(N(CCO)CCO)nc(N3CC(=O)N4CCCC4C3)c2n1 (stereo not drawn) [Compound 313, 2-(2-(bis(2-hydroxyethyl)amino)-6-(bis(2-methoxyethyl)amino)-8-(4-methoxypiperidin-1-yl)pyrimido[5,4-d]pyrimidin-4-yl)hexahydropyrrolo[1,2-a]pyrazin-4(1H)-one]	6.30 to 7.00
COCCN(CCOC)c1nc(N2CC(=O)N3CCCC3C2)c2nc(N(CCO)CCO)nc(N3CCC(OC)CC3)c2n1 (stereo not drawn) [Compound 314, 2-(6-(bis(2-hydroxyethyl)amino)-2-(bis(2-methoxyethyl)amino)-8-(4-methoxypiperidin-1-yl)pyrimido[5,4-d]pyrimidin-4-yl)hexahydropyrrolo[1,2-a]pyrazin-4(1H)-one]	6.00 to 6.30
COCCN(CCOC)c1nc(N2CCC(OC)CC2)c2nc(N(CCO)CCO)nc(N3CCN(C4CC4)C(=O)C3)c2n1 [Compound 315, 4-(2-(bis(2-hydroxyethyl)amino)-6-(bis(2-methoxyethyl)amino)-8-(4-methoxypiperidin-1-yl)pyrimido[5,4-d]pyrimidin-4-yl)-1-cyclopropylpiperazin-2-one]	6.00 to 6.30
COCCN(CCOC)c1nc(N2CCN(C3CC3)C(=O)C2)c2nc(N(CCO)CCO)nc(N3CCC(OC)CC3)c2n1 [Compound 316, 4-(6-(bis(2-hydroxyethyl)amino)-2-(bis(2-methoxyethyl)amino)-8-(4-methoxypiperidin-1-yl)pyrimido[5,4-d]pyrimidin-4-yl)-1-cyclopropylpiperazin-2-one]	6.00 to 6.30
COCCN(CCOC)c1nc(N2CCN(C)C(=O)C2)c2nc(N(CCOC)CCOC)nc(N3CCCCC3)c2n1 [Compound 319, 4-(2,6-bis(bis(2-methoxyethyl)amino)-8-(piperidin-1-yl)pyrimido[5,4-d]pyrimidin-4-yl)-1-methylpiperazin-2-one]	6.30 to 7.00
COCCN(CCOC)c1nc(N2CCn3nc(C)nc3C2)c2nc(N(CCO)CCO)nc(N3CCC(OC)CC3)c2n1 [Compound 323, 2,2′-((6-(bis(2-methoxyethyl)amino)-4-(4-methoxypiperidin-1-yl)-8-(2-methyl-5,6-dihydro-[1,2,4]triazolo[1,5-a]pyrazin-7(8H)-yl)pyrimido[5,4-d]pyrimidin-2-yl)azanediyl)bis(ethan-1-ol)]	6.30 to 7.00
COCCN(CCOC)c1nc(NCc2cccc(C#N)c2)c2nc(N(CCO)CCO)nc(N3CCC(OC)CC3)c2n1 [Compound 325, 3-(((6-(bis(2-hydroxyethyl)amino)-2-(bis(2-methoxyethyl)amino)-8-(4-methoxypiperidin-1-yl)pyrimido[5,4-d]pyrimidin-4-yl)amino)methyl)benzonitrile]	> 7.00
COCCN(CCOC)c1nc(N2CCC(OC)CC2)c2nc(N(CC(C)O)CC(C)O)nc(N3CCN(C)C(=O)C3)c2n1 (stereo not drawn) [Compound 327, 4-(2-(bis(2-hydroxypropyl)amino)-6-(bis(2-methoxyethyl)amino)-8-(4-methoxypiperidin-1-yl)pyrimido[5,4-d]pyrimidin-4-yl)-1-methylpiperazin-2-one]	> 7.00
COCCN(Cc1ccc(C(=O)O)cc1)c1nc(N2CCN(C)C(=O)C2)c2nc(N(CCOC)CCOC)nc(N3CCC(OC)CC3)c2n1 [Compound 333, 4-(((6-(bis(2-methoxyethyl)amino)-8-(4-methoxypiperidin-1-yl)-4-(4-methyl-3-oxopiperazin-1-yl)pyrimido[5,4-d]pyrimidin-2-yl)(2-methoxyethyl)amino)methyl)benzoic acid]	6.00 to 6.30

Results, then the compound that gave them:

pIC50	Compound
> 7.00	COCCN(CCOC)c1nc(N2CC(=O)N(C)C(=O)C2)c2nc(N(CCO)CCO)nc(N3CCC(OC)CC3)c2n1 [Compound 308, 4-(6-(bis(2-hydroxyethyl)amino)-2-(bis(2-methoxyethyl)amino)-8-(4-methoxypiperidin-1-yl)pyrimido[5,4-d]pyrimidin-4-yl)-1-methylpiperazine-2,6-dione]
6.30 to 7.00	COCCN(CCOC)c1nc(N2CCC(OC)CC2)c2nc(N(CCO)CCO)nc(N3CC(=O)N(C)C(C)C3)c2n1 (stereo not drawn) [Compound 309, 4-(2-(bis(2-hydroxyethyl)amino)-6-(bis(2-methoxyethyl)amino)-8-(4-methoxypiperidin-1-yl)pyrimido[5,4-d]pyrimidin-4-yl)-1,6-dimethylpiperazin-2-one]
6.00 to 6.30	COCCN(CCOC)c1nc(N2CC(=O)N(C)C(C)C2)c2nc(N(CCO)CCO)nc(N3CCC(OC)CC3)c2n1 (stereo not drawn) [Compound 310, 4-(6-(bis(2-hydroxyethyl)amino)-2-(bis(2-methoxyethyl)amino)-8-(4-methoxypiperidin-1-yl)pyrimido[5,4-d]pyrimidin-4-yl)-1,6-dimethylpiperazin-2-one]
6.30 to 7.00	COCCN(CCOC)c1nc(N2CC(=O)N(C)C(C)(C)C2)c2nc(N(CCO)CCO)nc(N3CCC(OC)CC3)c2n1 [Compound 312, 4-(6-(bis(2-hydroxyethyl)amino)-2-(bis(2-methoxyethyl)amino)-8-(4-methoxypiperidin-1-yl)pyrimido[5,4-d]pyrimidin-4-yl)-1,6,6-trimethylpiperazin-2-one]
6.00 to 6.30	COCCN(CCOC)c1nc(N2CCC(OC)CC2)c2nc(N(CCOC)CCOC)nc(N3CCCCC3)c2n1 [Compound 318, N2,N2,N6,N6-tetrakis(2-methoxyethyl)-4-(4-methoxypiperidin-1-yl)-8-(piperidin-1-yl)pyrimido[5,4-d]pyrimidine-2,6-diamine]
6.00 to 6.30	COCCN(CCOC)c1nc(N2CCN(C)C(=O)C2)c2nc(N(CCOC)CCOC)nc(N(C)C)c2n1 [Compound 320, 4-(2,6-bis(bis(2-methoxyethyl)amino)-8-(dimethylamino)pyrimido[5,4-d]pyrimidin-4-yl)-1-methylpiperazin-2-one]
6.00 to 6.30	COC1CCN(c2nc(N(CCO)CCO)nc3c(N4CCN(C)C(=O)C4)nc(N(CCO)CCO)nc23)CC1 [Compound 321, 4-(2,6-bis(bis(2-hydroxyethyl)amino)-8-(4-methoxypiperidin-1-yl)pyrimido[5,4-d]pyrimidin-4-yl)-1-methylpiperazin-2-one]
6.30 to 7.00	COCCN(CCOC)c1nc(N2CCC(OC)CC2)c2nc(N(CCO)CCO)nc(N3CCc4oc(C)nc4C3)c2n1 [Compound 322, 2,2′-((6-(bis(2-methoxyethyl)amino)-8-(4-methoxypiperidin-1-yl)-4-(2-methyl-6,7-dihydrooxazolo[4,5-c]pyridin-5(4H)-yl)pyrimido[5,4-d]pyrimidin-2-yl)azanediyl)bis(ethan-1-ol)]
> 7.00	COCCN(CCOC)c1nc(NCc2cccc(F)c2)c2nc(N(CCO)CCO)nc(N3CCC(OC)CC3)c2n1 [Compound 324, 2,2′-((6-(bis(2-methoxyethyl)amino)-8-((3-lluorobenzyl)amino)-4-(4-methoxypiperidin-1-yl)pyrimido[5,4-d]pyrimidin-2-yl)azanediyl)bis(ethan-1-ol)]
6.00 to 6.30	COCCN(CCOC)c1nc(N2CC(O)(C(F)(F)F)C2)c2nc(N(CCO)CCO)nc(N3CCC(OC)CC3)c2n1 [Compound 326, 2,2′-((6-(bis(2-methoxyethyl)amino)-8-(3-hydroxy-3-(trifluoromethyl)azetidin-1-yl)-4-(4-methoxypiperidin-1-yl)pyrimido[5,4-d]pyrimidin-2-yl)azanediyl)bis(ethan-1-ol)]
6.30 to 7.00	COC(C)CN(CC(C)OC)c1nc(N2CCC(OC)CC2)c2nc(N(CCO)CCO)nc(N3CCN(C)C(=O)C3)c2n1 (stereo not drawn) [Compound 328, 4-(2-(bis(2-hydroxyethyl)amino)-6-(bis(2-methoxypropyl)amino)-8-(4-methoxypiperidin-1-yl)pyrimido[5,4-d]pyrimidin-4-yl)-1-methylpiperazin-2-one]
> 7.00	COCCCN(CCCOC)c1nc(N2CCC(OC)CC2)c2nc(N(CCCO)CCCO)nc(N3CCN(C)C(=O)C3)c2n1 [Compound 329, 4-(2-(bis(3-hydroxypropyl)amino)-6-(bis(3-methoxypropyl)amino)-8-(4-methoxypiperidin-1-yl)pyrimido[5,4-d]pyrimidin-4-yl)-1-methylpiperazin-2-one]
6.30 to 7.00	COCCCN(CCCOC)c1nc(N2CCC(OC)CC2)c2nc(N(CCCO)CCCO)nc(N3CCC(OC)CC3)c2n1 [Compound 330, 3,3′-((6-(bis(3-methoxypropyl)amino)-4,8-bis(4-methoxypiperidin-1-yl)pyrimido[5,4-d]pyrimidin-2-yl)azanediyl)bis(propan-1-ol)]
